Results reported in US20090156518A1, “STABLE PHARMACEUTICAL COMPOSITION COMPRISING BETA-LACTAM ANTIBIOTIC AND BUFFER” (priority 2006, published 2009).

Test: amounts of β-lactam antibiotic, β-lactamase inhibitor (C18 reverse-phase LC, UV-VIS) and aminoglycoside (HPLC-ELSD) in solution over time
Assay type: physicochemical
Procedure: The amounts of β-lactam antibiotics and β-lactamase inhibitor were determined using C18 reverse-phase LC and UV-VIS detector (Tianjin Hemay BioTech Co., Ltd., analysis method No. HM-K-03). The content of aminoglycoside antibiotics was measured using reverse-phase HPLC and evaporation-light-scattering detector (ELSD detector) (Tianjin Hemay BioTech Co., Ltd., analysis method No. HM-K-08). The amount of antibiotic component at each time point was expressed as a percentage with respect to the amount at the initial time (herein defined as 100%). The relative amount of each antibiotic component in the composition at each time point was expressed as peak area ratio with respect to the corresponding peak area of an external standard.

CCN1CCN(C(=O)N[C@@H](C(=O)N[C@@H]2C(=O)N3C(C(=O)O)=C(CSc4nnnn4C)CS[C@H]23)c2ccc(O)cc2)C(=O)C1=O [Cefoperazone sodium]
amount of component as percentage with respect to the amount at the initial time (Example 4: cefoperazone sodium 4 g, sulbactam sodium 0.5 g, gentamicin 80 mg, citrate pH 6.75, 200 mL water, room temperature, Time 0 h): 101.4% | amount of component as percentage with respect to the amount at the initial time (Example 4: cefoperazone sodium 4 g, sulbactam sodium 0.5 g, gentamicin 80 mg, citrate pH 6.75, 200 mL water, room temperature, Time 1 h): 98.66% | amount of component as percentage with respect to the amount at the initial time (Example 4: cefoperazone sodium 4 g, sulbactam sodium 0.5 g, gentamicin 80 mg, citrate pH 6.75, 200 mL water, room temperature, Time 2 h): 98.79% | amount of component as percentage with respect to the amount at the initial time (Example 4: cefoperazone sodium 4 g, sulbactam sodium 0.5 g, gentamicin 80 mg, citrate pH 6.75, 200 mL water, room temperature, Time 4 h): 101.5% | amount of component as percentage with respect to the amount at the initial time (Example 4: cefoperazone sodium 4 g, sulbactam sodium 0.5 g, gentamicin 80 mg, citrate pH 6.75, 200 mL water, room temperature, Time 6 h): 107.4% | amount of component as percentage with respect to the amount at the initial time (Example 5: freeze-dried cefoperazone sodium 4 g, sulbactam sodium 0.5 g, citrate pH 6.75, + amikacin sulfate 500 mg, 7 days 0° C., dissolved in 100 mL water, Time 0 h): 101.4% | amount of component as percentage with respect to the amount at the initial time (Example 5: freeze-dried cefoperazone sodium 4 g, sulbactam sodium 0.5 g, citrate pH 6.75, + amikacin sulfate 500 mg, 7 days 0° C., dissolved in 100 mL water, Time 1 h): 98.66% | amount of component as percentage with respect to the amount at the initial time (Example 5: freeze-dried cefoperazone sodium 4 g, sulbactam sodium 0.5 g, citrate pH 6.75, + amikacin sulfate 500 mg, 7 days 0° C., dissolved in 100 mL water, Time 2 h): 98.79% | amount of component as percentage with respect to the amount at the initial time (Example 5: freeze-dried cefoperazone sodium 4 g, sulbactam sodium 0.5 g, citrate pH 6.75, + amikacin sulfate 500 mg, 7 days 0° C., dissolved in 100 mL water, Time 4 h): 101.5% | amount of component as percentage with respect to the amount at the initial time (Example 5: freeze-dried cefoperazone sodium 4 g, sulbactam sodium 0.5 g, citrate pH 6.75, + amikacin sulfate 500 mg, 7 days 0° C., dissolved in 100 mL water, Time 6 h): 107.4% | amount of component as percentage with respect to the amount at the initial time (Example 6: freeze-dried cefoperazone sodium 4 g, sulbactam sodium 1 g, citrate pH 6.75, + etimicin sulfate 200 mg, 7 days 0° C., dissolved in 100 mL water, Time 0 h): 110.4% | amount of component as percentage with respect to the amount at the initial time (Example 6: freeze-dried cefoperazone sodium 4 g, sulbactam sodium 1 g, citrate pH 6.75, + etimicin sulfate 200 mg, 7 days 0° C., dissolved in 100 mL water, Time 1 h): 99.48% | amount of component as percentage with respect to the amount at the initial time (Example 6: freeze-dried cefoperazone sodium 4 g, sulbactam sodium 1 g, citrate pH 6.75, + etimicin sulfate 200 mg, 7 days 0° C., dissolved in 100 mL water, Time 2 h): 101.3% | amount of component as percentage with respect to the amount at the initial time (Example 6: freeze-dried cefoperazone sodium 4 g, sulbactam sodium 1 g, citrate pH 6.75, + etimicin sulfate 200 mg, 7 days 0° C., dissolved in 100 mL water, Time 4 h): 98.66% | amount of component as percentage with respect to the amount at the initial time (Example 6: freeze-dried cefoperazone sodium 4 g, sulbactam sodium 1 g, citrate pH 6.75, + etimicin sulfate 200 mg, 7 days 0° C., dissolved in 100 mL water, Time 6 h): 98.02% | amount of component as percentage with respect to the amount at the initial time (Example 6: freeze-dried cefoperazone sodium 4 g, sulbactam sodium 1 g, citrate pH 6.75, + etimicin sulfate 200 mg, 7 days 0° C., dissolved in 100 mL water, Time 8 h): 99.30% | amount of component as percentage with respect to the amount at the initial time (Example 14: freeze-dried cefoperazone sodium 4 g, sulbactam sodium 2 g, citrate pH 6.75, 7 days 0° C., in 100 mL water, 10 mL + gentamicin sulfate 16 mg, room temperature, Time 0 h): 98.42% | amount of component as percentage with respect to the amount at the initial time (Example 14: freeze-dried cefoperazone sodium 4 g, sulbactam sodium 2 g, citrate pH 6.75, 7 days 0° C., in 100 mL water, 10 mL + gentamicin sulfate 16 mg, room temperature, Time 1 h): 97.39% | amount of component as percentage with respect to the amount at the initial time (Example 14: freeze-dried cefoperazone sodium 4 g, sulbactam sodium 2 g, citrate pH 6.75, 7 days 0° C., in 100 mL water, 10 mL + gentamicin sulfate 16 mg, room temperature, Time 2 h): 97.46% | amount of component as percentage with respect to the amount at the initial time (Example 14: freeze-dried cefoperazone sodium 4 g, sulbactam sodium 2 g, citrate pH 6.75, 7 days 0° C., in 100 mL water, 10 mL + gentamicin sulfate 16 mg, room temperature, Time 4 h): 94.70% | amount of component as percentage with respect to the amount at the initial time (Example 14: freeze-dried cefoperazone sodium 4 g, sulbactam sodium 2 g, citrate pH 6.75, 7 days 0° C., in 100 mL water, 10 mL + gentamicin sulfate 16 mg, room temperature, Time 6 h): 93.02% | amount of component as percentage with respect to the amount at the initial time (Example 15: freeze-dried cefoperazone sodium 4 g, sulbactam sodium 4 g, citrate pH 6.75, 7 days 0° C., in 100 mL water, 10 mL + gentamicin sulfate 16 mg, room temperature, Time 0 h): 101.7% | amount of component as percentage with respect to the amount at the initial time (Example 15: freeze-dried cefoperazone sodium 4 g, sulbactam sodium 4 g, citrate pH 6.75, 7 days 0° C., in 100 mL water, 10 mL + gentamicin sulfate 16 mg, room temperature, Time 1 h): 96.06% | amount of component as percentage with respect to the amount at the initial time (Example 15: freeze-dried cefoperazone sodium 4 g, sulbactam sodium 4 g, citrate pH 6.75, 7 days 0° C., in 100 mL water, 10 mL + gentamicin sulfate 16 mg, room temperature, Time 2 h): 95.72% | amount of component as percentage with respect to the amount at the initial time (Example 15: freeze-dried cefoperazone sodium 4 g, sulbactam sodium 4 g, citrate pH 6.75, 7 days 0° C., in 100 mL water, 10 mL + gentamicin sulfate 16 mg, room temperature, Time 4 h): 97.32% | amount of component as percentage with respect to the amount at the initial time (Example 15: freeze-dried cefoperazone sodium 4 g, sulbactam sodium 4 g, citrate pH 6.75, 7 days 0° C., in 100 mL water, 10 mL + gentamicin sulfate 16 mg, room temperature, Time 6 h): 69.95% | amount of component as percentage with respect to the amount at the initial time (Example 16: 10 mL of the final solution (cefoperazone sodium, tazobactam sodium, etimicin sulfate, citrate) + gentamicin sulfate 16 mg, Time 0 h): 92.44% | amount of component as percentage with respect to the amount at the initial time (Example 16: 10 mL of the final solution (cefoperazone sodium, tazobactam sodium, etimicin sulfate, citrate) + gentamicin sulfate 16 mg, Time 1 h): 104.6% | amount of component as percentage with respect to the amount at the initial time (Example 16: 10 mL of the final solution (cefoperazone sodium, tazobactam sodium, etimicin sulfate, citrate) + gentamicin sulfate 16 mg, Time 2 h): 102.4% | amount of component as percentage with respect to the amount at the initial time (Example 16: 10 mL of the final solution (cefoperazone sodium, tazobactam sodium, etimicin sulfate, citrate) + gentamicin sulfate 16 mg, Time 4 h): 97.95% | amount of component as percentage with respect to the amount at the initial time (Example 16: 10 mL of the final solution (cefoperazone sodium, tazobactam sodium, etimicin sulfate, citrate) + gentamicin sulfate 16 mg, Time 6 h): 98.90% | amount of component as percentage with respect to the amount at the initial time (Example 16: 10 mL of the final solution (cefoperazone sodium, tazobactam sodium, etimicin sulfate, citrate) + gentamicin sulfate 16 mg, Time 8 h): 102.9% | amount of component as percentage with respect to the amount at the initial time (Example 16: freeze-dried cefoperazone sodium 4 g, tazobactam sodium 1 g, citrate pH 6.75, 7 days 0° C., in 100 mL water, 10 mL + etimicin sulfate 20 mg, room temperature, Time 0 h): 102.9% | amount of component as percentage with respect to the amount at the initial time (Example 16: freeze-dried cefoperazone sodium 4 g, tazobactam sodium 1 g, citrate pH 6.75, 7 days 0° C., in 100 mL water, 10 mL + etimicin sulfate 20 mg, room temperature, Time 1 h): 108.6% | amount of component as percentage with respect to the amount at the initial time (Example 16: freeze-dried cefoperazone sodium 4 g, tazobactam sodium 1 g, citrate pH 6.75, 7 days 0° C., in 100 mL water, 10 mL + etimicin sulfate 20 mg, room temperature, Time 2 h): 104.6% | amount of component as percentage with respect to the amount at the initial time (Example 16: freeze-dried cefoperazone sodium 4 g, tazobactam sodium 1 g, citrate pH 6.75, 7 days 0° C., in 100 mL water, 10 mL + etimicin sulfate 20 mg, room temperature, Time 4 h): 99.50% | amount of component as percentage with respect to the amount at the initial time (Example 16: freeze-dried cefoperazone sodium 4 g, tazobactam sodium 1 g, citrate pH 6.75, 7 days 0° C., in 100 mL water, 10 mL + etimicin sulfate 20 mg, room temperature, Time 6 h): 98.91% | amount of component as percentage with respect to the amount at the initial time (Example 16: freeze-dried cefoperazone sodium 4 g, tazobactam sodium 1 g, citrate pH 6.75, 7 days 0° C., in 100 mL water, 10 mL + etimicin sulfate 20 mg, room temperature, Time 8 h): 103.4% | amount of component as percentage with respect to the amount at the initial time (Example 17: freeze-dried cefoperazone sodium 4 g, sulbactam sodium 1 g, citrate pH 6.75, 7 days 0° C., in 100 mL water, 10 mL + amikacin sulfate 40 mg, room temperature, Time 0 h): 92.30% | amount of component as percentage with respect to the amount at the initial time (Example 17: freeze-dried cefoperazone sodium 4 g, sulbactam sodium 1 g, citrate pH 6.75, 7 days 0° C., in 100 mL water, 10 mL + amikacin sulfate 40 mg, room temperature, Time 1 h): 94.80% | amount of component as percentage with respect to the amount at the initial time (Example 17: freeze-dried cefoperazone sodium 4 g, sulbactam sodium 1 g, citrate pH 6.75, 7 days 0° C., in 100 mL water, 10 mL + amikacin sulfate 40 mg, room temperature, Time 2 h): 94.06% | amount of component as percentage with respect to the amount at the initial time (Example 17: freeze-dried cefoperazone sodium 4 g, sulbactam sodium 1 g, citrate pH 6.75, 7 days 0° C., in 100 mL water, 10 mL + amikacin sulfate 40 mg, room temperature, Time 4 h): 94.12% | amount of component as percentage with respect to the amount at the initial time (Example 17: freeze-dried cefoperazone sodium 4 g, sulbactam sodium 1 g, citrate pH 6.75, 7 days 0° C., in 100 mL water, 10 mL + amikacin sulfate 40 mg, room temperature, Time 6 h): 93.15% | amount of component as percentage with respect to the amount at the initial time (Example 17: freeze-dried cefoperazone sodium 4 g, sulbactam sodium 1 g, citrate pH 6.75, 7 days 0° C., in 100 mL water, 10 mL + amikacin sulfate 40 mg, room temperature, Time 8 h): 94.50%
